Laboratory results as given in patent US9676818B2, “Toll-like receptor 2-agonistic lipopeptides, and method of making the same” (University of Kansas, priority 2013, dated 2017).

How the values were obtained:
[1] = tested on: anti-bovine α-lactalbumin IgG responses; assay: Rabbit immunization with bovine α-lactalbumin, antigen-specific IgG ELISA; type: in vivo
Experimental: All experiments were performed in accordance with institutional guidelines (University of Kansas IACUC permit #119-06) which specifically approved this study. All antigen/adjuvant preparations were entirely aqueous; no liposomal or emulsifying agents were used. Cohorts of adult female New Zealand White rabbits (n=4) were immunized intramuscularly in the flank region with (a) 100 μg of bovine α-lactalbumin in 0.2 mL saline, or (b) 100 μg of bovine α-lactalbumin plus 100 μg of compound 25 in 0.2 mL saline, or (d) 100 μg of bovine α-lactalbumin plus 100 μg of dual TLR2-agonistic PAM2CSK4 (control). Pre-immune test-bleeds were first obtained via venipuncture of the marginal vein of the ear. […] A final test-bleed was performed via the marginal vein of the ear on Day 38. Sera were stored at −80° C. until used.
Bovine α-lactalbumin-specific ELISAs were performed in 384-well format using automated liquid handling methods as described (Shukla, N. M. et al. Bioorg. Med. Chem. Lett. 2011, 21, 3232-3236). Examination of the affinity of antigen-specific IgG using chaotropic ELISA (Pullen, G. R. et al. J. Immunol. Methods 1986, 86, 83-87 and Macdonald, R. A. et al. J. Immunol. Methods 1988, 106, 191-194). […] Plates were then read at 450 nm using a SpectraMax M4 device (Molecular Devices, Sunnyvale, Calif.).

TLR7 = TLR7 (Homo sapiens (Human), UniProt Q9NYK1); assay: primary human TLR-specific reporter gene assay, TLR7 cell line; type: cell-based; settings: relative to parent compounds
Chain of TLR7 (Q9NYK1 27-1049): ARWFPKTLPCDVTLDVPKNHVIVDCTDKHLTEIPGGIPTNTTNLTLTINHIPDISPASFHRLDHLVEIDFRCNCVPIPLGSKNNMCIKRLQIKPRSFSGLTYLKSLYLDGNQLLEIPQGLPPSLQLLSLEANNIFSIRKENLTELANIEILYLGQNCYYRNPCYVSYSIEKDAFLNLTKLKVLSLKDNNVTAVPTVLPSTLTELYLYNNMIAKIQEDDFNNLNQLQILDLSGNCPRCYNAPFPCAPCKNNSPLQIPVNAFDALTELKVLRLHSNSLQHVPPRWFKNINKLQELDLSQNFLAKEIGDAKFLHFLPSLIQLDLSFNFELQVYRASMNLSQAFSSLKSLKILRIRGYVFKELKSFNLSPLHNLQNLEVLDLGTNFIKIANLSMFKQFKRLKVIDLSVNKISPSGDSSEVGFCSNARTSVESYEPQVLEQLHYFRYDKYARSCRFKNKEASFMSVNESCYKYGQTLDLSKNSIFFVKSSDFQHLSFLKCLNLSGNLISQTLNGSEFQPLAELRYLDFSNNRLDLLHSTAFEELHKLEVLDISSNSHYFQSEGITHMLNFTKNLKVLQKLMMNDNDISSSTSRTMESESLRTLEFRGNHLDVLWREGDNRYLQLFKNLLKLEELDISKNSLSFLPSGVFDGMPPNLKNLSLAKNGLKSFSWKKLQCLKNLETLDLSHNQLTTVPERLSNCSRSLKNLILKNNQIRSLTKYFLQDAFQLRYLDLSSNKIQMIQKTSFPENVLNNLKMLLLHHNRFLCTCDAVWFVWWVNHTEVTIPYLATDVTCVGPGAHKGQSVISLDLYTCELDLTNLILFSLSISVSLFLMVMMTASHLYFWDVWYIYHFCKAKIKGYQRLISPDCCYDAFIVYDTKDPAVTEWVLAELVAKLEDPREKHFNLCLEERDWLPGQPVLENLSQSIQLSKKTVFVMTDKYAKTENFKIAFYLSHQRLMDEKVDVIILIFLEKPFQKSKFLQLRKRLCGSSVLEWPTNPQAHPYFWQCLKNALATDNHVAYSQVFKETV

human TLR2 = human TLR2 (Homo sapiens (Human), UniProt O60603); assay: human TLR2-specific NF-κB reporter gene assay (HEK-Blue cells); type: cell-based; settings: for EC50: human TLR2-specific reporter gene assay, ND = no activity detected at 10 μM, read-out: TLR2-Agonistic Activity (EC50 in nM)
Chain of human TLR2 (O60603 21-784): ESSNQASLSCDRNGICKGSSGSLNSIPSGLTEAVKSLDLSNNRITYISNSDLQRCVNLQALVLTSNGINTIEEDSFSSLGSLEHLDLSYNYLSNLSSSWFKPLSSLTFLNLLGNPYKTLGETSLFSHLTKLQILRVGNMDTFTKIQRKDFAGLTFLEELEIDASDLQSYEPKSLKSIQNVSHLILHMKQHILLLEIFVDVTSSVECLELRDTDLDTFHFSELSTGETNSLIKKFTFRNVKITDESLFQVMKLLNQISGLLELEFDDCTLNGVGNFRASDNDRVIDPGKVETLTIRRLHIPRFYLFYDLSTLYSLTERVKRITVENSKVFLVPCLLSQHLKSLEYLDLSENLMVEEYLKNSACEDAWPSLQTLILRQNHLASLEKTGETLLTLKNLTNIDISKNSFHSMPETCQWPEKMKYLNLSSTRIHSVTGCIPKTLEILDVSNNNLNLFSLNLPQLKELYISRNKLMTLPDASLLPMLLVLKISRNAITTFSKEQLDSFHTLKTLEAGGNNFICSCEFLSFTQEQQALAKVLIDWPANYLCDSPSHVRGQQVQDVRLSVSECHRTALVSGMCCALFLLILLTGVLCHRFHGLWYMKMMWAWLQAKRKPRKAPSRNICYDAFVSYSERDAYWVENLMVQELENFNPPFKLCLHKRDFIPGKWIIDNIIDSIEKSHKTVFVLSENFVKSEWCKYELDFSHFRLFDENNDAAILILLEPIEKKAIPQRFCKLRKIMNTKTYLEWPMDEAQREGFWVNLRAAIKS
Excerpt: The induction of NF-κB in a TLR2-specific reporter gene assay was quantified using HEK-BLUE™ cells as previously described (Wu, W. et al., J. Med. Chem. 2010, 53, 3198-3213). HEK293 cells stably transfected with either human TLR2 or murine TLR2 and alkaline phosphatase (sAP) were obtained from InvivoGen (San Diego, Calif.), and were maintained in HEK-BLUE™ Selection medium containing zeocin and normocin. Stable expression of secreted alkaline phosphatase (sAP) under control of NF-κB promoters is inducible by TLR2 agonists, and extracellular sAP in the supernatant is proportional to NF-κB induction. HEK-Blue cells were incubated at a density of ˜10^5 cells/mL in a volume of 80 μL/well, in 384-well, flat-bottomed, cell culture-treated microtiter plates until confluency was achieved, and then stimulated with serially-diluted aliquots of compounds for 12 h. sAP was assayed spectrophoto-metrically using an alkaline phosphatase-specific chromogen (present in the HEK-detection medium as supplied by the vendor) at 620 nm. For antagonism assays, HEK-Blue cells were incubated at a density of ˜10^5 cells/mL in a volume of 80 μL/well and stimulated with either PAM2CS (1 μg/mL) or lipoteichoic acid (1 μg/mL) in the presence of graded concentrations of the test compounds as described for TLR7 previously (Shukla, N. M.; et al., Bioorg. Med. Chem. Lett. 2009, 19, 2211-2214; Shukla, N. M. et al., Bioorg. Med. Chem. 2011, 19, 3801-3811).

[2] = Stability of aqueous stocks; type: physicochemical
Aqueous solubility = type: physicochemical

Row | activity in TLR7 cell line (TLR7) | hTLR2-agonistic activity in words (human TLR2; hTLR2 reporter gene assay) | EC50 (human TLR2) [nM] | stability of aqueous stocks [2] | water solubility (Aqueous solubility) | Compound | adjuvanticity ([1]; New Zealand White rabbits, direct comparison with glucopyranosyl lipid A) | induction of anti-bovine α-lactalbumin IgG responses ([1]; rabbits, prime+single-boost model, FIG. 2)
1 |  |  |  |  |  | PAM2CSK4 [reference compound] | highly adjuvantic | 
2 | less active than their parent compounds | less active than their parent compounds | 221 |  |  | CCCCCCCCCCCCCCCCOC(=O)NCCSC[C@H](NC(C)=O)C(=O)N[C@@H](CO)C(=O)NCc1ccc(Cn2c(CCCC)nc3c(N)nc4ccccc4c32)cc1 [Compound 54, Hexadecyl(2-(((R)-2-acetamido-3-(((S)-1-((4-((4-amino-2-butyl-1H-imidazo[4,5-c]quinolin-1-yl)methyl)benzyl)amino)-3-hydroxy-1-oxopropan-2-yl)amino)-3-oxopropyl)thio)ethyl)carbamate] |  | 
3 |  |  | 6.81 | unstable | exceptionally water soluble | CCCCCCCCCCCCCCCC(=O)OCCSC[C@H](NC(C)=O)C(=O)N[C@@H](COC(=O)[C@@H](N)CCCCN)C(=O)OC.Cl.Cl [Compound 25, 2-(((R)-2-Acetamido-3-(((S)-3-(((S)-2,6-diaminohexanoyl)oxy)-1-methoxy-1-oxopropan-2-yl)amino)-3-oxopropyl)thio)ethyl palmitate] |  | excellent induction
